Like-named read-outs stand apart in the source and are kept apart here. Positions of bridges follow the written chain, without caps; N, C: chain ends. Residues, ends and D or L forms follow the SMILES beside them.
Tests used:
U251-MG cells = format: cell-based, human
Protocol: The migration and invasion assays were performed with Boyden chambers, according to De Vincenzo et al., using 11 × 10^4 U87-MG and U251-MG glioblastoma cells/sample pre-treated for 40 min at 37 °C with the indicated effectors and then allowed to migrate for 3 h or to invade for 5 h at 37 °C toward 5% FBS in DMEM/0.1% BSA. The migrated or invaded cells were reported as a percentage of basal random migration or invasion and analyzed as reported in the Statistical Analyses section. The migration and invasion experiments were conducted in triplicate.
Figure 4 Binding and biological effect of selected Ala peptides on U251-MG migration and invasion. (A) A binding assay was performed using U251-MG cells, as described in the legend of Figure 1. (B) The directional migration toward 10% FBS of U251-MG cells was performed in Boyden chambers, in the presence of the indicated peptides, as described in the legend of Figure 1. (C) An invasion assay was performed toward 5% FBS of U251-MG cells in Boyden chambers, in the presence of the indicated peptides. For all migration and invasion assays, the p-values are ≤0.001, apart from [Ala^1]uPAcyclin with a p ≤ 0.05.

[1] = molecular target: T1, integrin αV receptors on the GBM cell surface (U87-MG cells) (Homo sapiens, UniProt P06756); test: Receptor binding assay: displacement of FITC-uPAcyclin from U87-MG living cells
T1 construct: endogenous in cells; host or cells: U87-MG human glioblastoma cells (living, acid-treated, 4 °C)
Protocol: The U87-MG and U251-MG cell lines were harvested and acid-treated, as described. Briefly, 2 × 10^6 cells/sample were pre-incubated for 30 min at 4 °C with uPAcyclin and Ala peptides and subsequently exposed to 50 nM FITC-uPAcyclin for 2 h at 4 °C, as described. The experiments were performed three times, with duplicate samples, and analyzed as reported in the statistical analysis.
This assay confirmed that FITC-uPAcyclin binds specifically to both GBM cell lines and to the HEK-293/αV, whereas little interaction is detected with HEK-293 cells (Supporting Information, Table S7). […] To investigate the ability of novel Ala-scan peptides to compete with uPAcyclin for binding to integrin αV receptors on the GBM cell surface, the specific interaction of FITC-conjugated uPAcyclin with U87-MG living cells was tested via a receptor binding assay. U87-MG GBM cells were pre-incubated with increasing concentrations of unlabeled Ala peptides and then exposed to FITC-uPAcyclin (Figure 1A). […] When considering the relative Kdapp of uPAcyclin variants, it can be inferred that the replacement either of each of the three prolines (Pro^2, Pro^5, Pro^6) or Lys^1 increases the binding affinity of the resulting peptide compared to uPAcyclin. In contrast, the Ala mutation of other residues is detrimental to the peptide binding affinity.
Figure 1 Binding of Ala peptides to U87-MG cells and effect of uPAcyclin and Ala peptides on U87-MG cellular migration. (A) A total of 2 × 10^6 U87-MG cells were pre-incubated for 30 min at 4 °C with increasing concentrations of unlabeled uPAcyclin and Ala peptides and then exposed to 50 nM of FITC-uPAcyclin for 2 h at 4 °C. Cell surface-associated fluorescence, as percentage of the sample with […], is shown. Experiments were carried out in duplicate, and the data shown here are representative of three independent experiments. (B) 11 × 10^4 U87-MG cells/sample were pre-treated for 40 min at 37 °C with increasing concentrations of uPAcyclin or the indicated Ala peptides and then assayed in Boyden chambers for 5% FBS-dependent migration for 3 h at 37 °C. At the end of incubation, the filters were processed as described in the Methods section. For clarity here and in the following Figures, Ala-x indicates the peptide with substituted x-position. For both assays, the p-values are in the range of 0.005 ≤ p ≤ 0.001, apart from [Ala1]uPAcyclin in the migration assay with p ≤ 0.05.

T1 sequence (P06756 31-889 limits assumed): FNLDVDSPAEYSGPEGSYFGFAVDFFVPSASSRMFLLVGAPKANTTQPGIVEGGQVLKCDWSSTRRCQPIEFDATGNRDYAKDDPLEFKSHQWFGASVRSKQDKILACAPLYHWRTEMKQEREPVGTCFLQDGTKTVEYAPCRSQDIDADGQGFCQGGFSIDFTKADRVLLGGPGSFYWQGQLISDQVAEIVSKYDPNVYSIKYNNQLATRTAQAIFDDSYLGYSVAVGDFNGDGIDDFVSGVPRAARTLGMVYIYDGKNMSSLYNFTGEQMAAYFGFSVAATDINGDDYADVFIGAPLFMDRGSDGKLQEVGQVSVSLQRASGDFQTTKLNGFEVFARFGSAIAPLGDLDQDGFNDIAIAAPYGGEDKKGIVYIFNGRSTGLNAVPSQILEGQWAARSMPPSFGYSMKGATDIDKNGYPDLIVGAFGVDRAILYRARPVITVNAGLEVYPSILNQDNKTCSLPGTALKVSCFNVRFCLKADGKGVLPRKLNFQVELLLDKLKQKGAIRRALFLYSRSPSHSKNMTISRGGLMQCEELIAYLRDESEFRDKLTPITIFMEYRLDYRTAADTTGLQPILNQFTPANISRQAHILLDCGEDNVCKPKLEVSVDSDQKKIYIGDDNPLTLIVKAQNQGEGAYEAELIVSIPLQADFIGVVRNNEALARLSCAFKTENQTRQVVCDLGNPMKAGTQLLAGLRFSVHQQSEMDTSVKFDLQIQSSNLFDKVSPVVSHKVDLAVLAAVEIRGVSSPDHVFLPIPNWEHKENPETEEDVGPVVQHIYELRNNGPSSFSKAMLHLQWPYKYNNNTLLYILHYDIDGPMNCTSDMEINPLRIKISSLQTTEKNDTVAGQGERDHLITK
T1 sequence (P06756 891-1048 limits assumed): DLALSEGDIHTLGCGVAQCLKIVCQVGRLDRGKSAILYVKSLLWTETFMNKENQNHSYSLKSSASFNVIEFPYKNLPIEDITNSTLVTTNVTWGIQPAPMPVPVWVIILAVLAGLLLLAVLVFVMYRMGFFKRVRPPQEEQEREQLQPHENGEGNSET

Q: For `CC(=O)N[C@@H](CCCCN)C(=O)N[C@@H](C)C(=O)N[C@H]1CCC(=O)NCCCC[C@@H](C(N)=O)NC(=O)[C@H](CC(C)C)NC(=O)[C@H](CCC(=O)O)NC(=O)[C@H](CCC(=O)O)NC(=O)[C@@H]2CCCN2C(=O)[C@H](C)NC(=O)[C@H](CO)NC1=O` [[Ala^2,Ala^5]uPAcyclin] (Ac-KAESAPEELK-NH2; lactam 3-10), which IC50 (U251-MG cells; 3 h) is on record?
A: < 1 pM

Q: And the IC50 (U251-MG cells; 5 h)?
A: < 1 pM

Q: What does the source list for `CC(=O)N[C@@H](CCCCN)C(=O)N1CCC[C@H]1C(=O)N[C@H]1CCC(=O)NCCCC[C@@H](C(N)=O)NC(=O)[C@H](CC(C)C)NC(=O)[C@H](C)NC(=O)[C@H](CCC(=O)O)NC(=O)[C@@H]2CCCN2C(=O)[C@@H]2CCCN2C(=O)[C@H](CO)NC1=O` [[Ala^8]uPAcyclin] (Ac-KPESPPEALK-NH2; lactam 3-10)?
A: inhibition of invasion (in words) (U251-MG cells; U251-MG): most active among the Ala variants; inhibition of migration (in words) (U251-MG cells; U251-MG): most active among the Ala variants; binding affinity compared to uPAcyclin (in words) ([1]; displacement of FITC-uPAcyclin, U87-MG cells): reduced affinity

Q: `CC(=O)N[C@@H](CCCCN)C(=O)N1CCC[C@H]1C(=O)N[C@H]1CCC(=O)NCCCC[C@@H](C(N)=O)NC(=O)[C@H](CC(C)C)NC(=O)[C@H](CCC(=O)O)NC(=O)[C@H](CCC(=O)O)NC(=O)[C@@H]2CCCN2C(=O)[C@@H]2CCCN2C(=O)[C@H](CO)NC1=O` [uPAcyclin] (Ac-KPESPPEELK-NH2; lactam 3-10) was tested. Which Kd ([1]; competition with 50 nM FITC-uPAcyclin, 2 × 10^6 U87-MG cells, pre-incubation 30 min 4 °C, then 2 h 4 °C, three experiments in duplicate, read-out: Kdapp) did it give?
A: ~100 pM

Source: paper PMC11853379, “Glioblastoma Cell Migration, Invasion and Vasculogenic Mimicry Downmodulated by Novel uPAcyclin Derivatives” (Cells, 2025)
